The values that follow are results of earlier work, collected in patent publication US11590100B2, “Composition for buccal or sublingual administration of cannabis extract and methods for making same” (PANAXIA PHARMACEUTICAL INDUSTRIES LTD., priority 2017, dated 2023).

In the case of `CCCCCc1cc(O)c2c(c1)OC(C)(C)[C@@H]1CCC(C)=C[C@@H]21` [THC, Delta-9-tetrahydrocannabinol], the peak effect (after oral administration) is 2 to 4 h. For the same molecule, the absorbed (after single oral doses) is 90-95%. In addition, the “administered dose reaching the systemic circulation” value (oral, first pass hepatic metabolism and poor aqueous solubility) was 10-20%.
